{"source": "the supplement of paper PMC10307832", "test_in_all_cases": "relative viability (nuclei count vs DMSO), 5 days (fraction); higher = more cells survive", "key": {"Ibrutinib + Tozasertib": {"compound": "C=CC(=O)N1CCC[C@@H](n2nc(-c3ccc(Oc4ccccc4)cc3)c3c(N)ncnc32)C1 [Ibrutinib] + Cc1cc(Nc2cc(N3CCN(C)CC3)nc(Sc3ccc(NC(=O)C4CC4)cc3)n2)n[nH]1 [Tozasertib] (partner 0.1 µM)", "summary_of_the_method": "(§1)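 One day after seeding in 1536-well plates, lung cancer cell lines were dosed by pin tool. Dosing was either single-drug or a fixed anchor-drug dose plus five library-drug doses (not always all listed) in √10 steps. After 5 days, nuclei were stained in one fix-and-stain step and counted on 4× images, and relative viability is the nuclei count of treated wells over that of vehicle wells, given as the median of duplicate plates.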"}, "BMX-IN-1 + Phenformin": {"compound": "C=CC(=O)Nc1cc(-n2c(=O)ccc3cnc4ccc(-c5ccc(NS(C)(=O)=O)cc5)cc4c32)ccc1C [BMX-IN-1] + N=C(N)NC(=N)NCCc1ccccc1 [Phenformin] (partner 250 µM)", "summary_of_the_method": "as §1"}, "BMX-IN-1 + Pemetrexed": {"compound": "C=CC(=O)Nc1cc(-n2c(=O)ccc3cnc4ccc(-c5ccc(NS(C)(=O)=O)cc5)cc4c32)ccc1C [BMX-IN-1] + Nc1nc2[nH]cc(CCc3ccc(C(=O)N[C@@H](CCC(=O)O)C(=O)O)cc3)c2c(=O)[nH]1 [Pemetrexed] (partner 0.2 µM)", "summary_of_the_method": "as §1"}, "PAC-1 + Pemetrexed": {"compound": "C=CCc1cccc(/C=N/NC(=O)CN2CCN(Cc3ccccc3)CC2)c1O [PAC-1] + Nc1nc2[nH]cc(CCc3ccc(C(=O)N[C@@H](CCC(=O)O)C(=O)O)cc3)c2c(=O)[nH]1 [Pemetrexed] (partner 0.2 µM)", "summary_of_the_method": "as §1"}}}
{"cell line": "NCI-H2405", "values": [{"measurement": "relative viability", "setting": "Ibrutinib + Tozasertib; first compound 0.005 µM", "result": 0.85}, {"measurement": "relative viability", "setting": "Ibrutinib + Tozasertib; first compound 0.01581 µM", "result": 0.739}, {"measurement": "relative viability", "setting": "Ibrutinib + Tozasertib; first compound 0.05 µM", "result": 0.798}, {"measurement": "relative viability", "setting": "Ibrutinib + Tozasertib; first compound 0.1581 µM", "result": 0.75}, {"measurement": "relative viability", "setting": "Ibrutinib + Tozasertib; first compound 0.5 µM", "result": 0.717}, {"measurement": "relative viability", "setting": "BMX-IN-1 + Phenformin; first compound 0.02 µM", "result": 0.389}, {"measurement": "relative viability", "setting": "BMX-IN-1 + Phenformin; first compound 0.2 µM", "result": 0.568}, {"measurement": "relative viability", "setting": "BMX-IN-1 + Phenformin; first compound 0.6325 µM", "result": 0.391}, {"measurement": "relative viability", "setting": "BMX-IN-1 + Phenformin; first compound 2 µM", "result": 0.429}, {"measurement": "relative viability", "setting": "BMX-IN-1 + Pemetrexed; first compound 0.02 µM", "result": 1.13}, {"measurement": "relative viability", "setting": "BMX-IN-1 + Pemetrexed; first compound 0.2 µM", "result": 1.19}, {"measurement": "relative viability", "setting": "BMX-IN-1 + Pemetrexed; first compound 0.6325 µM", "result": 1.09}, {"measurement": "relative viability", "setting": "BMX-IN-1 + Pemetrexed; first compound 2 µM", "result": 0.94}, {"measurement": "relative viability", "setting": "PAC-1 + Pemetrexed; first compound 0.02 µM", "result": 1.08}, {"measurement": "relative viability", "setting": "PAC-1 + Pemetrexed; first compound 0.06325 µM", "result": 1.06}, {"measurement": "relative viability", "setting": "PAC-1 + Pemetrexed; first compound 0.2 µM", "result": 1.06}, {"measurement": "relative viability", "setting": "PAC-1 + Pemetrexed; first compound 2 µM", "result": 1.02}]}
{"cell line": "NCI-H1734", "values": [{"measurement": "relative viability", "setting": "Ibrutinib + Tozasertib; first compound 0.005 µM", "result": 0.272}, {"measurement": "relative viability", "setting": "Ibrutinib + Tozasertib; first compound 0.01581 µM", "result": 0.245}, {"measurement": "relative viability", "setting": "Ibrutinib + Tozasertib; first compound 0.05 µM", "result": 0.299}, {"measurement": "relative viability", "setting": "Ibrutinib + Tozasertib; first compound 0.1581 µM", "result": 0.257}, {"measurement": "relative viability", "setting": "Ibrutinib + Tozasertib; first compound 0.5 µM", "result": 0.257}, {"measurement": "relative viability", "setting": "BMX-IN-1 + Phenformin; first compound 0.02 µM", "result": 0.341}, {"measurement": "relative viability", "setting": "BMX-IN-1 + Phenformin; first compound 0.2 µM", "result": 0.431}, {"measurement": "relative viability", "setting": "BMX-IN-1 + Phenformin; first compound 0.6325 µM", "result": 0.461}, {"measurement": "relative viability", "setting": "BMX-IN-1 + Phenformin; first compound 2 µM", "result": 0.415}, {"measurement": "relative viability", "setting": "BMX-IN-1 + Pemetrexed; first compound 0.02 µM", "result": 0.451}, {"measurement": "relative viability", "setting": "BMX-IN-1 + Pemetrexed; first compound 0.2 µM", "result": 0.409}, {"measurement": "relative viability", "setting": "BMX-IN-1 + Pemetrexed; first compound 0.6325 µM", "result": 0.407}, {"measurement": "relative viability", "setting": "BMX-IN-1 + Pemetrexed; first compound 2 µM", "result": 0.377}, {"measurement": "relative viability", "setting": "PAC-1 + Pemetrexed; first compound 0.02 µM", "result": 0.379}, {"measurement": "relative viability", "setting": "PAC-1 + Pemetrexed; first compound 0.06325 µM", "result": 0.427}, {"measurement": "relative viability", "setting": "PAC-1 + Pemetrexed; first compound 0.2 µM", "result": 0.418}, {"measurement": "relative viability", "setting": "PAC-1 + Pemetrexed; first compound 2 µM", "result": 0.419}]}
{"cell line": "NCI-H2087", "values": [{"measurement": "relative viability", "setting": "Ibrutinib + Tozasertib; first compound 0.005 µM", "result": 0.303}, {"measurement": "relative viability", "setting": "Ibrutinib + Tozasertib; first compound 0.01581 µM", "result": 0.206}, {"measurement": "relative viability", "setting": "Ibrutinib + Tozasertib; first compound 0.05 µM", "result": 0.262}, {"measurement": "relative viability", "setting": "Ibrutinib + Tozasertib; first compound 0.5 µM", "result": 0.233}, {"measurement": "relative viability", "setting": "BMX-IN-1 + Phenformin; first compound 0.02 µM", "result": 0.462}, {"measurement": "relative viability", "setting": "BMX-IN-1 + Phenformin; first compound 0.2 µM", "result": 0.572}, {"measurement": "relative viability", "setting": "BMX-IN-1 + Phenformin; first compound 0.6325 µM", "result": 0.508}, {"measurement": "relative viability", "setting": "BMX-IN-1 + Phenformin; first compound 2 µM", "result": 0.443}, {"measurement": "relative viability", "setting": "BMX-IN-1 + Pemetrexed; first compound 0.02 µM", "result": 0.725}, {"measurement": "relative viability", "setting": "BMX-IN-1 + Pemetrexed; first compound 0.2 µM", "result": 0.715}, {"measurement": "relative viability", "setting": "BMX-IN-1 + Pemetrexed; first compound 0.6325 µM", "result": 0.669}, {"measurement": "relative viability", "setting": "BMX-IN-1 + Pemetrexed; first compound 2 µM", "result": 0.625}, {"measurement": "relative viability", "setting": "PAC-1 + Pemetrexed; first compound 0.02 µM", "result": 0.675}, {"measurement": "relative viability", "setting": "PAC-1 + Pemetrexed; first compound 0.06325 µM", "result": 0.641}, {"measurement": "relative viability", "setting": "PAC-1 + Pemetrexed; first compound 0.2 µM", "result": 0.663}, {"measurement": "relative viability", "setting": "PAC-1 + Pemetrexed; first compound 2 µM", "result": 0.724}]}
{"cell line": "NCI-H1563", "values": [{"measurement": "relative viability", "setting": "BMX-IN-1 + Phenformin; first compound 0.02 µM", "result": 0.664}, {"measurement": "relative viability", "setting": "BMX-IN-1 + Phenformin; first compound 0.2 µM", "result": 0.644}, {"measurement": "relative viability", "setting": "BMX-IN-1 + Phenformin; first compound 0.6325 µM", "result": 0.648}, {"measurement": "relative viability", "setting": "BMX-IN-1 + Phenformin; first compound 2 µM", "result": 0.642}, {"measurement": "relative viability", "setting": "BMX-IN-1 + Pemetrexed; first compound 0.02 µM", "result": 0.748}, {"measurement": "relative viability", "setting": "BMX-IN-1 + Pemetrexed; first compound 0.2 µM", "result": 0.769}, {"measurement": "relative viability", "setting": "BMX-IN-1 + Pemetrexed; first compound 0.6325 µM", "result": 0.724}, {"measurement": "relative viability", "setting": "BMX-IN-1 + Pemetrexed; first compound 2 µM", "result": 0.675}, {"measurement": "relative viability", "setting": "PAC-1 + Pemetrexed; first compound 0.02 µM", "result": 0.787}, {"measurement": "relative viability", "setting": "PAC-1 + Pemetrexed; first compound 0.06325 µM", "result": 0.746}, {"measurement": "relative viability", "setting": "PAC-1 + Pemetrexed; first compound 0.2 µM", "result": 0.776}, {"measurement": "relative viability", "setting": "PAC-1 + Pemetrexed; first compound 2 µM", "result": 0.949}]}
{"cell line": "SW 900", "values": [{"measurement": "relative viability", "setting": "Ibrutinib + Tozasertib; first compound 0.05 µM", "result": 0.663}, {"measurement": "relative viability", "setting": "Ibrutinib + Tozasertib; first compound 0.1581 µM", "result": 0.627}, {"measurement": "relative viability", "setting": "Ibrutinib + Tozasertib; first compound 0.5 µM", "result": 0.59}, {"measurement": "relative viability", "setting": "BMX-IN-1 + Phenformin; first compound 0.02 µM", "result": 0.545}, {"measurement": "relative viability", "setting": "BMX-IN-1 + Phenformin; first compound 0.2 µM", "result": 0.82}, {"measurement": "relative viability", "setting": "BMX-IN-1 + Phenformin; first compound 0.6325 µM", "result": 0.614}, {"measurement": "relative viability", "setting": "BMX-IN-1 + Phenformin; first compound 2 µM", "result": 0.543}, {"measurement": "relative viability", "setting": "BMX-IN-1 + Pemetrexed; first compound 0.02 µM", "result": 0.529}, {"measurement": "relative viability", "setting": "BMX-IN-1 + Pemetrexed; first compound 0.2 µM", "result": 0.5}, {"measurement": "relative viability", "setting": "BMX-IN-1 + Pemetrexed; first compound 0.6325 µM", "result": 0.485}, {"measurement": "relative viability", "setting": "BMX-IN-1 + Pemetrexed; first compound 2 µM", "result": 0.425}, {"measurement": "relative viability", "setting": "PAC-1 + Pemetrexed; first compound 0.06325 µM", "result": 0.456}, {"measurement": "relative viability", "setting": "PAC-1 + Pemetrexed; first compound 0.2 µM", "result": 0.456}, {"measurement": "relative viability", "setting": "PAC-1 + Pemetrexed; first compound 2 µM", "result": 0.531}]}
{"cell line": "A549", "values": [{"measurement": "relative viability", "setting": "BMX-IN-1 + Phenformin; first compound 0.02 µM", "result": 0.164}, {"measurement": "relative viability", "setting": "BMX-IN-1 + Phenformin; first compound 0.2 µM", "result": 1.01}, {"measurement": "relative viability", "setting": "BMX-IN-1 + Phenformin; first compound 0.6325 µM", "result": 0.17}, {"measurement": "relative viability", "setting": "BMX-IN-1 + Phenformin; first compound 2 µM", "result": 0.188}]}
